The results in this text go back to ChEMBL document CHEMBL1145488, “Transient loss of high-level mupirocin resistance in Staphylococcus aureus due to MupA polymorphism” (2007).

Converted amounts (≈) assume the structure as drawn. Bounds are passed on as bounds.

Format in all cases: functional
Assay [1] has as its system Staphylococcus aureus. The assay is described as follows: Antibacterial activity against Staphylococcus aureus with ileS gene mutation.
For assay [2], the system named is Staphylococcus aureus. Description: Antibacterial activity against Staphylococcus aureus J2870 with mupA gene mutation.
Assay [3] concerns Staphylococcus aureus. Description: Antibacterial activity against Staphylococcus aureus MB1348 with mupA gene mutation by Etest.
Assay [4] concerns Staphylococcus aureus. The assay is described as follows: Antibacterial activity against Staphylococcus aureus MB1348 with mupA gene mutation by broth microdilution.

As for `C/C(=C\C(=O)OCCCCCCCCC(=O)O)C[C@@H]1OC[C@H](C[C@@H]2O[C@H]2[C@@H](C)[C@H](C)O)[C@@H](O)[C@H]1O` [MUPIROCIN], the MIC – broadly, the smallest concentration in the dilution series that meets the test's criterion for growth inhibition – in assay [1] was 8 µg/mL (≈ 16 µM); in assay [2], at least 512 µg/mL; in assay [3] it was above 256 µg/mL; in assay [4] it was 0.25 µg/mL (≈ 0.499 µM).
